Reference: ChEMBL document CHEMBL4622932, “Design, synthesis and biological evaluation of new Myo-inositol derivatives as potential RAS inhibitors” (Bioorg Med Chem Lett, 2020)

Legend:
[1] = biological target: GTPase KRas (Homo sapiens) (UniProt P01116); experiment: Inhibition of KRAS in human MDA-MB-231 cells assessed as reduction in phosphorylated RAF-1 E1 protein level at 25 uM measured after 24 hrs by Western blot analysis relative to control; type: cell-based
MDA-MB-231 [2] = experiment: Induction of apoptosis in human MDA-MB-231 cells assessed as live cells at 25 uM measured after 48 hrs by annexinV-FITC/propidium iodide staining based flow cytometry (reference value: 99 %); type: functional
MDA-MB-231 [3] = experiment: Cell cycle arrest in human MDA-MB-231 cells assessed as accumulation at S phase at 15 uM measured after 48 hrs by propidium iodide/RNase staining based flow cytometry (reference value: 22.09 %); type: functional
[4] = biological target: GTPase KRas (Homo sapiens) (UniProt P01116); experiment: Inhibition of KRAS in human MCF7 cells assessed as reduction in Pan RAS protein level at 25 uM measured after 24 hrs by Western blot analysis relative to control; type: cell-based
MDA-MB-231 [5] = experiment: Cell cycle arrest in human MDA-MB-231 cells assessed as accumulation at G1 phase at 25 uM measured after 48 hrs by propidium iodide/RNase staining based flow cytometry (reference value: 74.56 %); type: functional
[6] = biological target: GTPase KRas (Homo sapiens) (UniProt P01116); experiment: Inhibition of KRAS in human MDA-MB-231 cells assessed as reduction in Pan RAS protein level at 35 uM measured after 24 hrs by Western blot analysis relative to control; type: cell-based
[7] = biological target: GTPase KRas (Homo sapiens) (UniProt P01116); experiment: Inhibition of KRAS in human MDA-MB-231 cells assessed as reduction in Pan RAS protein level at 25 uM measured after 24 hrs by Western blot analysis relative to control; type: cell-based
[8] = biological target: GTPase KRas (Homo sapiens) (UniProt P01116); experiment: Inhibition of KRAS in human MDA-MB-231 cells assessed as reduction in MEK1/2 9G3 protein level at 35 uM measured after 24 hrs by Western blot analysis relative to control; type: cell-based
[9] = biological target: GTPase KRas (Homo sapiens) (UniProt P01116); experiment: Inhibition of KRAS in human MDA-MB-231 cells assessed as reduction in phosphorylated ERK1/2 at Thr185/Tyr187 residues protein level at 25 uM measured after 24 hrs by Western blot analysis relative to control; type: cell-based
[10] = biological target: GTPase KRas (Homo sapiens) (UniProt P01116); experiment: Inhibition of KRAS in human MCF7 cells assessed as reduction in phosphorylated MEK1/2 at Ser217/221 residues protein level at 25 uM measured after 24 hrs by Western blot analysis relative to control; type: cell-based
[11] = biological target: GTPase KRas (Homo sapiens) (UniProt P01116); experiment: Inhibition of KRAS in human MDA-MB-231 cells assessed as reduction in phosphorylated MEK1/2 at Ser217/221 residues protein level at 15 uM measured after 24 hrs by Western blot analysis relative to control; type: cell-based
[12] = biological target: GTPase KRas (Homo sapiens) (UniProt P01116); experiment: Inhibition of KRAS in human MCF7 cells assessed as reduction in Pan RAS protein level at 15 uM measured after 24 hrs by Western blot analysis relative to control; type: cell-based
[13] = biological target: GTPase KRas (Homo sapiens) (UniProt P01116); experiment: Inhibition of KRAS in human MCF7 cells assessed as reduction in MEK1/2 9G3 protein level at 35 uM measured after 24 hrs by Western blot analysis relative to control; type: cell-based
MCF7 [14] = experiment: Induction of apoptosis in human MCF7 cells assessed as early apoptotic cells at 25 uM measured after 48 hrs by annexinV-FITC/propidium iodide staining based flow cytometry (reference value: 0.04 %); type: functional
[15] = biological target: GTPase KRas (Homo sapiens) (UniProt P01116); experiment: Inhibition of KRAS in human MCF7 cells assessed as reduction in MEK1/2 9G3 protein level at 25 uM measured after 24 hrs by Western blot analysis relative to control; type: cell-based
MCF7 [16] = experiment: Induction of apoptosis in human MCF7 cells assessed as late apoptotic cells at 15 uM measured after 48 hrs by annexinV-FITC/propidium iodide staining based flow cytometry (reference value: 0.17 %); type: functional
[17] = biological target: GTPase KRas (Homo sapiens) (UniProt P01116); experiment: Inhibition of KRAS in human MCF7 cells assessed as reduction in phosphorylated ERK1/2 at Thr185/Tyr187 residues protein level at 15 uM measured after 24 hrs by Western blot analysis relative to control; type: cell-based
[18] = biological target: GTPase KRas (Homo sapiens) (UniProt P01116); experiment: Inhibition of KRAS in human MDA-MB-231 cells assessed as reduction in phosphorylation of RAF measured after 24 hrs by Western blot analysis; type: cell-based
MDA-MB-231 [19] = experiment: Induction of apoptosis in human MDA-MB-231 cells assessed as early apoptotic cells at 15 uM measured after 48 hrs by annexinV-FITC/propidium iodide staining based flow cytometry (reference value: 0.69 %); type: functional
[20] = biological target: GTPase KRas (Homo sapiens) (UniProt P01116); experiment: Inhibition of KRAS in human MCF7 cells assessed as reduction in phosphorylated RAF-1 E1 protein level at 15 uM measured after 24 hrs by Western blot analysis relative to control; type: cell-based
MCF7 [21] = experiment: Antiproliferative activity against human MCF7 cells reduction in cell viability measured after 48 hrs by MTT assay; type: functional, cell-based
[22] = biological target: GTPase KRas (Homo sapiens) (UniProt P01116); experiment: Inhibition of KRAS in human MDA-MB-231 cells assessed as reduction in ERK1/2 137F5 protein level at 35 uM measured after 24 hrs by Western blot analysis relative to control; type: cell-based
MDA-MB-231 [23] = experiment: Cell cycle arrest in human MDA-MB-231 cells assessed as accumulation at G2 phase at 25 uM measured after 48 hrs by propidium iodide/RNase staining based flow cytometry (reference value: 3.35 %); type: functional
MDA-MB-231 [24] = experiment: Induction of apoptosis in human MDA-MB-231 cells assessed as necrotic cells at 25 uM measured after 48 hrs by annexinV-FITC/propidium iodide staining based flow cytometry (reference value: 0.31 %); type: functional
[25] = biological target: GTPase KRas (Homo sapiens) (UniProt P01116); experiment: Inhibition of KRAS in human MDA-MB-231 cells assessed as reduction in phosphorylated RAF-1 E1 protein level at 35 uM measured after 24 hrs by Western blot analysis relative to control; type: cell-based
[26] = biological target: GTPase KRas (Homo sapiens) (UniProt P01116); experiment: Inhibition of KRAS in human MCF7 cells assessed as reduction in ERK1/2 137F5 protein level at 25 uM measured after 24 hrs by Western blot analysis relative to control; type: cell-based
[27] = biological target: GTPase KRas (Homo sapiens) (UniProt P01116); experiment: Inhibition of KRAS in human MCF7 cells assessed as reduction in phosphorylated ERK1/2 at Thr185/Tyr187 residues protein level at 35 uM measured after 24 hrs by Western blot analysis relative to control; type: cell-based
[28] = biological target: GTPase KRas (Homo sapiens) (UniProt P01116); experiment: Inhibition of KRAS in human MDA-MB-231 cells assessed as reduction in ERK1/2 137F5 protein level at 25 uM measured after 24 hrs by Western blot analysis relative to control; type: cell-based
HEK-293T = experiment: Cytotoxicity against human 293T cells assessed as reduction in cell viability measured after 48 hrs by MTT assay; type: cell-based
MCF7 [29] = experiment: Induction of apoptosis in human MCF7 cells assessed as late apoptotic cells at 25 uM measured after 48 hrs by annexinV-FITC/propidium iodide staining based flow cytometry (reference value: 0.17 %); type: functional
[30] = biological target: GTPase KRas (Homo sapiens) (UniProt P01116); experiment: Inhibition of KRAS in human MCF7 cells assessed as reduction in phosphorylated MEK1/2 at Ser217/221 residues protein level at 35 uM measured after 24 hrs by Western blot analysis relative to control; type: cell-based
MDA-MB-231 [31] = experiment: Cell cycle arrest in human MDA-MB-231 cells assessed as accumulation at G1 phase at 15 uM measured after 48 hrs by propidium iodide/RNase staining based flow cytometry (reference value: 74.56 %); type: functional

## O=P(Oc1ccccc1)(Oc1ccccc1)OC1C2OC3(c4ccccc4)OC(C2O)C(O)C1O3 (stereo not drawn)
[1]
  fold change (FC): 0.14
MDA-MB-231 [2]
  Activity: 62.65%
MDA-MB-231 [3]
  Activity: 44.74%
[4]
  fold change (FC): 1.16
MDA-MB-231 [5]
  Activity: 59.93%
[6]
  fold change (FC): 0.46
[7]
  fold change (FC): 1.18
[8]
  fold change (FC): 0.46
[9]
  fold change (FC): 1
[10]
  fold change (FC): 1.12
[11]
  fold change (FC): 1.24
[12]
  fold change (FC): 0.99
[13]
  fold change (FC): 0.87
MCF7 [14]
  Activity: 1.23%
[15]
  fold change (FC): 1.06
MCF7 [16]
  Activity: 0.28%
[17]
  fold change (FC): 1.02
[18]
  inhibition: Dose-dependent effect
MDA-MB-231 [19]
  Activity: 0.39%
[20]
  fold change (FC): 1.06
MCF7 [21]
  Activity: Dose-dependent effect
MCF7 [21]; MCF7, 48 h
  IC50: 35.1 µM
[22]
  fold change (FC): 0.93
MDA-MB-231 [23]
  Activity: 0%
MDA-MB-231 [24]
  Activity: 16.64%
[25]
  fold change (FC): 0.17
[26]
  fold change (FC): 1.14
[27]
  fold change (FC): 0.35
[28]
  fold change (FC): 0.91
HEK-293T
  IC50: 39.5 µM
MCF7 [29]
  Activity: 0.49%
[30]
  fold change (FC): 0.86
MDA-MB-231 [31]
  Activity: 34.45%
